In PubChem BioAssay (NCI) one finds TGI and GI50 data, which are given here for 22 compounds.

Some test systems named below: RXF-631 renal; SNB-78 CNS; DMS 273 small cell lung; DLD-1 colon; XF 498 CNS; HOP-18 NSCLC; MDA-N; M19-MEL melanoma; DMS 114 small cell lung.
What all share (assay): NCI tumour cell line growth inhibition, 48 h

The structures appear in SMILES notation. Values joined by “and” are separate entries in the source; they are usually repeats but may differ in a detail not shown here. Equal entries are not always repeated.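 Assay format: 96-well plates, 48-hour exposure. At the GI50, growth is halved. TGI marks complete inhibition of growth.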

Take `Cc1cc2c(c3oc(C4(C)OC4C4OC4C)cc(=O)c13)C(=O)c1c(O)c(C3CC(C)(N(C)C)C(O)C(C)O3)cc(C3CC(N(C)C)C(O)C(C)O3)c1C2=O` (centres undefined): the TGI is 0.123 µM in the test on RXF-631 renal; 0.000406 µM and 0.00252 µM in the test with DMS 273 small cell lung; 0.00068 µM in the test on XF 498 CNS; 0.00334 µM in the test with HOP-18 NSCLC; 0.000228 µM with MDA-N. Besides, the results for the GI50 with SNB-78 CNS, in the test with DLD-1 colon and in the test on XF 498 CNS were 0.000187 µM, 0.00017 µM and 0.000187 µM, respectively.

`CC(=O)C1(N=Nc2ccc(S(N)(=O)=O)cc2)CCOC1=O` (centres undefined) gave a TGI in the test with MDA-N above 100 µM.

Consider `S=c1nc(Cl)cc2[nH]c(Cl)cn12`, for which the TGI in the test with MDA-N came out at 4.56 µM.

For `Fc1cccc2c1cc1ccc3cccc4ccc2c1c34`, the TGI in the test with SNB-78 CNS, in the test with M19-MEL melanoma, in the test with DMS 273 small cell lung, in the test on DLD-1 colon, in the test on XF 498 CNS and in the test with HOP-18 NSCLC was above 100 µM throughout.

With `C[n+]1ccc(-c2c3nc(c(-c4cc[n+](C)cc4)c4ccc([n-]4)c(-c4cc[n+](C)cc4)c4nc(c(-c5cc[n+](C)cc5)c5ccc2[n-]5)C=C4)C=C3)cc1.[I-].[Zn+2]`, the GI50 with RXF-631 renal is 17.1 µM; in the test with SNB-78 CNS, 23.3 µM; in the test with M19-MEL melanoma, 10.3 µM; with DMS 273 small cell lung it was 33.7 µM; in the test on DLD-1 colon, 29.3 µM; in the test with DMS 114 small cell lung, 7.11 µM. Further, in the test with HOP-18 NSCLC, the GI50 is 16.9 µM. Further, the TGI in the test with RXF-631 renal was 46.8 µM; in the test with SNB-78 CNS, 69.6 µM; with M19-MEL melanoma it was 28.3 µM; in the test on DMS 273 small cell lung, above 100 µM; in the test with DLD-1 colon, 84.3 µM; with DMS 114 small cell lung, 22.6 µM. In the test on HOP-18 NSCLC, this compound returned a TGI of 41.3 µM.

On to `N#CS.N=C=S.N=C=S.[Cu+2].[NH2-].[NH2-].[NH2-].[NH2-].c1ccc2ncccc2c1`, for which, in the test with MDA-N, the GI50 was above 100 µM and the TGI is above 100 µM.

The compound `O=c1oc2ccc(-n3c(=O)c4ccccc4c4ccccc4c3=O)cc2c2ccccc12` displayed a TGI in the test on MDA-N above 100 µM.

Turning to `OC1C2CCC1C1C3C=CC(C3)C21` (centres undefined), the TGI in the test with SNB-78 CNS, in the test with M19-MEL melanoma, in the test with DMS 273 small cell lung, in the test on DLD-1 colon, with XF 498 CNS and in the test on DMS 114 small cell lung was above 100 µM in each case. The TGI in the test with HOP-18 NSCLC is above 100 µM.

Regarding `c1ccc2c(c1)[nH]c1c2nc2ncccn21`, the TGI in the test with RXF-631 renal, in the test on SNB-78 CNS, in the test with M19-MEL melanoma, with DMS 273 small cell lung, in the test with DLD-1 colon and in the test with XF 498 CNS was above 100 µM each time. This compound also had a TGI with DMS 114 small cell lung above 100 µM.

`CC1OC(OC2C(CO)OC(O[C@H]3CC[C@@]4(C)C(=CC[C@H]5[C@@H]6C[C@@H]7O[C@]8(CC[C@@H](C)CN8)[C@@H](C)[C@@H]7[C@@]6(C)CC[C@@H]54)C3)C(O)C2O)C(O)C(O)C1O` (some centres undefined): the TGI with SNB-78 CNS, in the test with M19-MEL melanoma, with DMS 273 small cell lung, with DLD-1 colon, with XF 498 CNS and in the test on DMS 114 small cell lung was above 100 µM in each case. The TGI in the test on HOP-18 NSCLC is above 100 µM.

On to `O=C(NCC(O)CNC(=O)C(F)(F)F)C(F)(F)F`, for which the TGI with SNB-78 CNS, in the test with M19-MEL melanoma, with DMS 273 small cell lung, in the test with DLD-1 colon, with XF 498 CNS and in the test on DMS 114 small cell lung was above 100 µM throughout. In addition, the TGI with HOP-18 NSCLC was above 100 µM.

Take `CC(C)(C)OC(=O)NC(CO)c1cccc(OCc2ccccc2)c1` (centres undefined): the TGI in the test on SNB-78 CNS, with M19-MEL melanoma, in the test with DMS 273 small cell lung, with DLD-1 colon, with XF 498 CNS and in the test with DMS 114 small cell lung was above 100 µM each time. The compound further returned a TGI in the test on HOP-18 NSCLC above 100 µM.

Take `N#C/C(=C/Sc1ccccc1)C(=O)O`: the TGI is 59.5 µM in the test on SNB-78 CNS; 74 µM in the test on M19-MEL melanoma; 72.6 µM in the test with DMS 273 small cell lung; above 100 µM in the test on DLD-1 colon; above 100 µM with XF 498 CNS; 35.8 µM with DMS 114 small cell lung. This compound also returned a TGI in the test with HOP-18 NSCLC above 100 µM.

For `COc1ccc2nc3ccccc3c(NCCCN(C)CCCl)c2c1`, the TGI in the test on RXF-631 renal is 2.15 µM; in the test on SNB-78 CNS it was 2.27 µM; with M19-MEL melanoma, 1.9 µM; with DMS 273 small cell lung, 1.36 µM; with DLD-1 colon, 3.68 µM; with XF 498 CNS it was 0.77 µM. The TGI with DMS 114 small cell lung is 1.68 µM; with MDA-N, 2.02 µM.

In the test with MDA-N, `O=c1c2ccccc2c2ccccc2c(=O)n1Cc1ccc2c(c1)OCO2` yielded a TGI of 28.7 µM.

As for `O=c1oc(=O)c2oc3ccccc3oc1=2`, the TGI with M19-MEL melanoma, in the test with DMS 273 small cell lung, with DLD-1 colon, with XF 498 CNS, in the test on DMS 114 small cell lung and in the test on HOP-18 NSCLC was above 100 µM throughout.

In the case of `CC1(C)CCC(C)(C)c2c1ccc(O)c2Cc1c(O)ccc2c1C(C)(C)CCC2(C)C`, in the test on MDA-N, the TGI came out at 3.73 µM.

Take `CN(C)CCOC(c1ccccc1)c1ccccc1`: in the test on MDA-N, the GI50 is 29.4 µM; the TGI is 50.1 µM and > 100 µM.

Regarding `COc1ccc(CNc2nc3cc(N)cc(N)c3nc2-c2ccccc2)cc1`, in the test on MDA-N, the GI50 is 14.2 µM and the TGI came to 27.7 µM.

For `S=C(N/N=C(/c1ccccc1)c1ccccn1)N1CCCCCC1`, in the test on MDA-N, the GI50 was 0.217 µM; the TGI was 2.32 µM and 1.72 µM.

`CSc1ncnc2c1ncn2C1OC(CO)C(O)OC1O` (centres undefined) displayed a TGI in the test on MDA-N of 27.7 µM.

On to `NCCN1C(=O)C2C3c4ccccc4C(c4ccccc43)C2C1=O` (centres undefined), for which the TGI in the test with SNB-78 CNS, in the test with M19-MEL melanoma, in the test with DMS 273 small cell lung, in the test on DLD-1 colon, in the test on DMS 114 small cell lung and in the test with HOP-18 NSCLC was above 100 µM in each case.
